According to patent US20240180093A1, “GENETIC MARKERS AND SOYBEAN PLANTS WITH INCREASED TOLERANCE TO DICAMBA” (THE CURATORS OF THE UNIVERSITY OF MISSOURI, priority 2022, published 2024):
Like-named read-outs stand apart in the source and are kept apart here.

Experiments:
[1] = cited from earlier work
soybean accessions = settings: for Mean off-target dicamba damage score: 1 to 5 scale
Excerpt: A total of 382 genetically diverse soybean accessions with maturity groups (MG) ranging from MG 3 to 5 were used in this study. These comprise a subset of the USDA Soybean Germplasm Collection and originated from […], including Algeria (2), China (226), Costa Rica (1), Georgia (2), Indonesia (1), Japan (38), Nepal (1), North Korea (20), Russia (5), South Africa (1), South Korea (32), Taiwan (3), United States (40), and Vietnam (5). Five accessions have unknown origins. The USDA Soybean Germplasm Collection was genotyped with the SoySNP50K BeadChip.
Field trials were conducted in three environments for two years (2020-2021) using a two-replicate randomized complete block design in Portageville, MO (36°23′44.2″N lat; 89°36′52.3″W long) and Clarkton, MO (36°29′14.8″N lat; 89°57′39.0″W long). Each plot consisted of a single 2.13 m long row spaced 0.76 m apart.
Each year, genotypes were visually assessed for off-target dicamba damage once in the early reproductive stage between R1 to R3 (approximately […]). Lines were rated on a 1 to 5 scale with 0.5 increments.
Adjusted means across environments were calculated using the function ‘ls_means’ of the R package ‘lmerTest’ (available at https://www.r-project.org/) based on a mixed-effects linear model conducted with the package ‘lme4’. The model included the fixed effect of genotype, the random interaction between genotype and environment (G×E), the random effect of environment, and the nested random effect of replication within the environment. To measure the consistency and inter-relatedness of the damage ratings across environments, Cronbach's alpha (α) score was calculated each year using the R package ‘psych’ (Revelle, 2021) based on Eq. 1.

For `O=C(O)CNCP(=O)(O)O` [glyphosate, N-(phosphonomethyl)glycine], which water solubility [1] is on record?
The water solubility was “high water solubility”.

Which “Mean off-target dicamba damage score” value (soybean accessions; environment 2020-Clarkton) does the source give for `COc1c(Cl)ccc(Cl)c1C(=O)O` [dicamba, 3,6-dichloro-2-methoxybenzoic acid] here?
Its value is 2.70.

What about the “Mean off-target dicamba damage score” value (soybean accessions; environment 2021-Clarkton) of the same molecule?
The value was 2.80.

What about the “Mean off-target dicamba damage score” value (soybean accessions; environment 2021-LeeFarm) of the same molecule?
Its value is 2.60.

And the “Mean off-target dicamba damage score” value (soybean accessions; overall, three environments 2020-2021, 382 accessions)?
The value was 2.70.

What about the average damage (soybean accessions; accession PI 88788) of the same molecule?
The average damage was 3.5.

What about the average damage (soybean accessions; accession PI 342434 (Japan)) of the same molecule?
Its average damage is 1.5.

What about the average damage (soybean accessions; accession PI 424005 (South Korea)) of the same molecule?
The average damage was 1.2.

What about the average damage (soybean accessions; accession PI 424038-B (South Korea)) of the same molecule?
Its average damage is 1.3.

And the average damage (soybean accessions; accession PI 547862 (L83-570, United States))?
The average damage was 4.1.

What about the average damage (soybean accessions; accession PI 552538 (Dunbar, United States)) of the same molecule?
Its average damage is 4.2.

And the average damage (soybean accessions; accession PI 561701 (G88-20092, United States))?
Its average damage is 1.4.

And the average damage (soybean accessions; accession PI 597387 (Pana, United States))?
The average damage was 4.5.

And the average damage (soybean accessions; accession PI 598124 (Maverick, United States))?
The average damage was 4.3.

What about the average damage (soybean accessions; accession PI 603497 (China)) of the same molecule?
Its average damage is 1.4.

What about the average damage (soybean accessions; accession PI 603675 (China)) of the same molecule?
The average damage was 4.5.

What about the average damage (soybean accessions; accessions derived from Asia) of the same molecule?
Its average damage is 2.6.

What about the average damage (soybean accessions; accessions derived from the Americas) of the same molecule?
The average damage was 3.0.

What about the average damage (soybean accessions; accessions from China) of the same molecule?
Its average damage is 2.7.

What about the average damage (soybean accessions; accessions from Costa Rica) of the same molecule?
Its average damage is 3.1.

What about the average damage (soybean accessions; accessions from Japan) of the same molecule?
Its average damage is 2.6.

What about the average damage (soybean accessions; accessions from South Korea) of the same molecule?
Its average damage is 2.5.

And the average damage (soybean accessions; accessions from the United States)?
Its average damage is 2.3.

What about the average damage (soybean accessions; accessions of maturity group MG 3) of the same molecule?
Its average damage is 2.8.

What about the average damage (soybean accessions; accessions of maturity group MG 4) of the same molecule?
Its average damage is 2.7.

And the average damage (soybean accessions; accessions of maturity group MG 5)?
The average damage was 2.5.

And the “mean score of dicamba damage” value (soybean accessions; genotypes carrying all three favorable alleles (ss715605561, ss715635349, ss715632413))?
Its value is 1.58.

And the “mean score of dicamba damage” value (soybean accessions; genotypes carrying all three unfavorable alleles (ss715605561, ss715635349, ss715632413))?
Its value is 2.90.
